The target in one assay is LSD1 (Homo sapiens (Human), UniProt O60341). In words: In vitro enzyme inhibition assay - LSD1 (HTRF). Format: biochemical. Background: Time-resolved FRET reads energy transfer from a long-lived donor to a nearby acceptor.
The target in a further assay is pan-HDAC. The experiment in a line: In vitro enzyme inhibition assay - HDAC (HDAC-Glo I/II), pan-HDAC. It counts as biochemical. In a few lines: (§1)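 Eight compound concentrations (5-fold steps from a 1 mM DMSO stock) tested against pan-HDAC, HDAC1 and HDAC8 with HDAC-Glo I/II reagents, luminescence read-out. Percent inhibition normalized to no-inhibitor and no-enzyme wells; IC50 derived by four-parameter logistic fit.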

The target of a further assay is HDAC1 (Homo sapiens (Human), UniProt Q13547). The experiment in a line: In vitro enzyme inhibition assay - HDAC (HDAC-Glo I/II), HDAC1. Particulars: read-out: HDAC IC50 (nM) HDAC 1. Format: biochemical. In a few lines: as §1
HDAC1, sequence (Q13547 whole entry): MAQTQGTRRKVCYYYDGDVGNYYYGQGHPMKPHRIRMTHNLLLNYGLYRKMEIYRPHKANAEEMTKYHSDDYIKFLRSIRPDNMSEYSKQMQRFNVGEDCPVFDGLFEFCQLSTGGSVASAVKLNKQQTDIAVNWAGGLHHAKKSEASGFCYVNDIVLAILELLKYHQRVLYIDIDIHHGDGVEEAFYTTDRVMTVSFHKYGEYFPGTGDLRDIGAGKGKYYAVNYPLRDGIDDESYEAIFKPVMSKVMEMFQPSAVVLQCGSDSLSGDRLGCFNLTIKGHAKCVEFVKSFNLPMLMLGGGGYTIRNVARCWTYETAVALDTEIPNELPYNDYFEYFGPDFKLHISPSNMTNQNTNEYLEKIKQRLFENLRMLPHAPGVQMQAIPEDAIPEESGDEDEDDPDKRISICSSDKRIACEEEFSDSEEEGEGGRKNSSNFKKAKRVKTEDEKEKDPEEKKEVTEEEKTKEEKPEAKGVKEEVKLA
The next assay concerns the target HDAC8 (Homo sapiens (Human), UniProt Q9BY41). The experiment in a line: In vitro enzyme inhibition assay - HDAC (HDAC-Glo I/II), HDAC8. It counts as biochemical. The following applies: read-out: HDAC IC50 (nM) HDAC 8. Put shortly:
as §1

In the next assay the test system is NCI-H1417 cells. In words: In vitro cell inhibition assay - H1417 cell proliferation (CellTiter-Glo). It counts as cell-based. Particulars: Homo sapiens, NCI-H1417, H1417 small cell lung cancer cell proliferation. Put shortly:
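Cells exposed to 8 compound concentrations (5-fold dilutions) in BEGM with 10% FBS for 7 days at 37° C., 5% CO2. Viable cells measured by CellTiter-Glo luminescence; inhibition versus no-inhibitor and no-cell controls, IC50 fitted.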
In general terms: ATP-based viability assays read luminescence as a measure of living cells.

The subject of a further assay is NCI-H69 cells. In words: In vitro cell inhibition assay - NCI-H69 cell proliferation (CellTiter-Glo). Format: cell-based. The following applies: Homo sapiens, NCI-H69, H69 small cell lung cancer cell proliferation. In a few lines:
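7-day exposure at 37° C., 5% CO2 to compounds serially diluted 5-fold (8 concentrations) in RPMI-640 containing 20% FBS, after overnight attachment at 1×10^3 cells/well. Read-out: CellTiter-Glo luminescence (RLU); IC50 from curve fit of inhibition rate.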

Another assay relates to NCI-H526 cells. In words: In vitro cell inhibition assay - NCI-H526 cell proliferation (CellTiter-Glo). It counts as cell-based. The following applies: Homo sapiens, NCI-H526, 120 h, H526 small cell lung cancer cell proliferation, 5 days. In a few lines: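 NCI-H526 cells plated at 1×10^3 per well overnight, then treated with 8 concentrations (5-fold dilutions) in RPMI-640 with 10% FBS for 5 days at 37° C., 5% CO2. Viable cells quantified by CellTiter-Glo luminescence; IC50 fitted from inhibition rates relative to no-inhibitor and no-cell controls.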

This is an account of results in patent publication US20250304549A1, “HYDROXYAMIDE DERIVATIVE AND USE THEREOF” (SICHUAN HUIYU PHARMACEUTICAL CO., LTD., priority 2022, published 2025).

Where a name gives a salt, the structure may show the parent alone.

As a reminder, the IC50 is the concentration that inhibits the measured activity by half.

HDAC8, sequence (Q9BY41 whole entry): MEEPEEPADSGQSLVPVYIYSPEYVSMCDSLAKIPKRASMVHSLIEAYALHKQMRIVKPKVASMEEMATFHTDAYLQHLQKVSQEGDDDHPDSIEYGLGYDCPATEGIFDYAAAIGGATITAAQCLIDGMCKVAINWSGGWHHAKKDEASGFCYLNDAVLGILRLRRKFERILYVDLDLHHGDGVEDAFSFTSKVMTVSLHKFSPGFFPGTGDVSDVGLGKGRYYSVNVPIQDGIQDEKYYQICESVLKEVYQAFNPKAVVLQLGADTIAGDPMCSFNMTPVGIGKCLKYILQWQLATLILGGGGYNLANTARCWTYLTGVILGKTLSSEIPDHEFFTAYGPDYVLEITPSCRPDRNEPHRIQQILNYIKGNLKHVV

Take `CC(C)(O)COc1ccc(-c2cnc(N3CCC(NCc4ccc(/C=C/C(=O)NO)c(C#N)c4)CC3)c(C#N)c2-c2ccc(C#N)c(F)c2)cc1O` [Example 189, (E)-3-(2-Cyano-4-((1-(3-cyano-4-(4-cyano-3-fluorophenyl)-5-(3-hydroxy-4-(2-hydroxy-2-methylpropoxy)phenyl)pyridin-2-yl)piperidin-4-yl)amino)methyl) phenyl)-N-hydroxyacrylamide formate]: the IC50 turned out to be 4.11 nM on LSD1; 7.8 nM on pan-HDAC; 13.4 nM on HDAC1; 130 nM at HDAC8; 6.31 nM with NCI-H1417 cells; 39.2 nM in the assay with NCI-H69 cells. Half-maximal inhibition with NCI-H526 cells (IC50) was put at 27.8 nM.
In the case of `COc1ccc(-c2cnc(N3CCC(NCc4ccc(CCC(=O)NO)nc4)CC3)c(C#N)c2-c2ccc(C#N)c(F)c2)cc1O` [Example 191, 3-(5-(((1-(3-Cyano-4-(4-cyano-3-fluorophenyl)-5-(3-hydroxy-4-methoxyphenyl)pyridin-2-yl)piperidin-4-yl)amino)methyl)pyridin-2-yl)-N-hydroxypropanamide formate], the IC50 at LSD1 was found to be 2.24 nM; against pan-HDAC, 2.17 nM; at HDAC1, 0.54 nM; on HDAC8, 37.5 nM; in the assay on NCI-H1417 cells, 3.38 nM; in the assay with NCI-H69 cells it was 24.6 nM. For the same compound, the IC50 in the assay on NCI-H526 cells worked out at 25.9 nM.
With `CC(C)(O)COc1ccc(-c2cnc(N3CCC(NCc4ccc(OCC(=O)NO)cc4)CC3)c(C#N)c2-c2ccc(C#N)c(F)c2)cc1O` [Example 192, 2-(4-(((1-(3-cyano-4-(4-cyano-3-fluorophenyl)-5-(3-hydroxy-4-(2-hydroxy-2-methylpropoxy)phenyl)pyridin-2-yl)piperidin-4-yl)amino)methyl)phenoxy)-N-hydroxyacetamide formate], the IC50 on LSD1 was determined as 0.45 nM; at pan-HDAC, 2.75 nM; on HDAC1, 1.49 nM; at HDAC8 it was 64.9 nM; with NCI-H1417 cells, 1.98 nM; with NCI-H69 cells it was 28 nM. Inhibition in the assay on NCI-H526 cells was half-maximal at 82.1 nM (IC50).
As to `CC(C)(O)COc1ccc(-c2cnc(N3CCC(NCc4ccc(/C=C(\F)C(=O)NO)cc4)CC3)c(C#N)c2-c2ccc(C#N)c(F)c2)cc1O` [Example 198, (Z)-3-(4-(((1-(3-Cyano-4-(4-cyano-3-fluorophenyl)-5-(3-hydroxy-4-(2-hydroxy-2-methylpropoxy)phenyl)pyridin-2-yl)piperidin-4-yl)amino)methyl)phenyl)-2-fluoro-N-hydroxyacrylamide formate], the IC50 against LSD1 came to 0.4 nM; against pan-HDAC it was 6.35 nM; on HDAC1, 4.85 nM; on HDAC8, 67.2 nM; in the assay on NCI-H1417 cells, 0.63 nM; in the assay on NCI-H69 cells it was 23.7 nM. Besides, inhibition in the assay with NCI-H526 cells was half-maximal at 21.2 nM (IC50).
As for `CC(C)(O)COc1ccc(-c2cnc(N3CCC(NCc4ccc(/C=C/C(=O)NO)nc4)CC3)c(C#N)c2-c2ccc(C#N)c(F)c2)cc1O` [Example 199, (E)-3-(5-((1-(3-Cyano-4-(4-cyano-3-fluorophenyl)-5-(3-hydroxy-4-(2-hydroxy-2-methylpropoxy)phenyl)pyridin-2-yl)piperidin-4-yl)amino)methyl) pyridin-2-yl)-N-hydroxyacrylamide formate], the IC50 stood at 0.54 nM against LSD1; 2.77 nM against pan-HDAC; 1.92 nM on HDAC1; 33.9 nM at HDAC8; 2.78 nM with NCI-H1417 cells; 9.24 nM with NCI-H69 cells. The compound further had a concentration for half-maximal inhibition (IC50) in the assay on NCI-H526 cells of 4.05 nM.
Take `COc1ccc(-c2cnc(N3CCC(NCc4ccc(/C=C/C(=O)NO)c(F)c4)CC3)c(C#N)c2-c2ccc(C#N)c(F)c2)cc1O` [Example 200, (E)-3-(4-(((1-(3-Cyano-4-(4-cyano-3-fluorophenyl)-5-(3-hydroxy-4-methoxyphenyl)pyridin-2-yl)piperidin-4-yl)amino)methyl)-2-fluorophenyl)-N-hydroxyacrylamide formate]: the IC50 worked out at 0.45 nM against LSD1; 4.18 nM on pan-HDAC; 2.95 nM at HDAC1; 127 nM on HDAC8; 2.27 nM with NCI-H1417 cells; 5.16 nM in the assay on NCI-H69 cells. In addition, the IC50 in the assay with NCI-H526 cells was determined as 4.1 nM.
As to `COc1ccc(-c2cnc(N3CCC(NCc4ccc(CCC(=O)NO)c(F)c4)CC3)c(C#N)c2-c2ccc(C#N)c(F)c2)cc1O` [Example 201, 3-(4-((1-(3-Cyano-4-(4-cyano-3-fluorophenyl)-5-(3-hydroxy-4-methoxyphenyl)pyridin-2-yl)piperidin-4-yl)amino)methyl)-2-fluorophenyl)-N-hydroxypropanamide formate], the IC50 at LSD1 came out at 0.22 nM; against pan-HDAC, 7.71 nM; at HDAC1 it was 4.81 nM; at HDAC8, 438 nM; in the assay on NCI-H1417 cells it was 3.33 nM; in the assay on NCI-H69 cells, 56.4 nM. The same compound displayed an IC50 in the assay with NCI-H526 cells of 20.5 nM.
As for `COc1ccc(-c2cnc(N3CCC(NCc4cnc(/C=C/C(=O)NO)nc4)CC3)c(C)c2-c2ccc(C#N)c(F)c2)cc1O` [Example 202, (E)-3-(5-(((1-(4-(4-Cyano-3-fluorophenyl)-5-(3-hydroxy-4-methoxyphenyl)-3-methylpyridin-2-yl)piperidin-4-yl)amino)methyl)pyrimidin-2-yl)-N-hydroxyacrylamide formate], the IC50 stood at 74.2 nM at LSD1; 1.85 nM against pan-HDAC; 0.88 nM on HDAC1; 9.03 nM on HDAC8; 6.15 nM in the assay on NCI-H1417 cells; 13.6 nM in the assay with NCI-H69 cells. For the same compound, the concentration for half-maximal inhibition (IC50) in the assay with NCI-H526 cells worked out at 4.35 nM.
Turning to `N#Cc1ccc(-c2c(-c3ccc(N4CCOCC4)c(O)c3)cnc(N3CCC(NCc4ccc(/C=C/C(=O)NO)cc4)CC3)c2C#N)cc1F` [Example 203, (E)-3-(4-(((1-(3-Cyano-4-(4-cyano-3-fluorophenyl)-5-(3-hydroxy-4-morpholinophenyl)pyridin-2-yl)piperidin-4-yl)amino)methyl)phenyl-N-hydroxyacrylamide formate], the IC50 turned out to be 1.03 nM against LSD1; 1.39 nM at pan-HDAC; 1.58 nM at HDAC1; 25.3 nM on HDAC8; 1.99 nM with NCI-H1417 cells; 9.38 nM in the assay on NCI-H69 cells. The same compound had an IC50 in the assay with NCI-H526 cells of 12.3 nM.
`CC(C)(O)COc1ccc(-c2cnc(N3CCC(NCc4ccc(/C=C/C(=O)NO)cn4)CC3)c(C#N)c2-c2ccc(C#N)c(F)c2)cc1O` [Example 205, (E)-3-(6-(((1-(3-Cyano-4-(4-cyano-3-fluorophenyl)-5-(3-hydroxy-4-(2-hydroxy-2-methylpropoxy)phenyl)pyridin-2-yl)piperidin-4-yl)amino)methyl)pyridin-3-yl)-N-hydroxyacrylamide formate]: the IC50 at LSD1 is 1.91 nM; against pan-HDAC, 4.37 nM; at HDAC1, 3.08 nM; at HDAC8 it was 100 nM; in the assay on NCI-H1417 cells, 6.86 nM; with NCI-H69 cells, 25.2 nM. This compound also came in with a concentration for half-maximal inhibition (IC50) with NCI-H526 cells of 39.2 nM.
Turning to `COc1ccc(-c2cnc(N3CCC(C)(NCc4cnc(/C=C/C(=O)NO)nc4)CC3)c(C#N)c2-c2ccc(C#N)c(F)c2)cc1O` [Example 206, (E)-3-(5-(((1-(3-Cyano-4-(4-cyano-3-fluorophenyl)-5-(3-hydroxy-4-methoxyphenyl)pyridin-2-yl)-4-methylpiperidin-4-yl)amino)methyl)pyrimidin-2-yl)-N-hydroxyacrylamide formate], the IC50 stood at 2.03 nM against LSD1; 11.5 nM against pan-HDAC; 32.9 nM on HDAC1; 32.5 nM at HDAC8; 6.21 nM in the assay with NCI-H1417 cells; 94.7 nM in the assay on NCI-H69 cells. Moreover, 106 nM corresponded to half-maximal inhibition with NCI-H526 cells (IC50).
Consider `Cc1c(N2CCC(NCc3ccc(/C=C/C(=O)NO)cc3)CC2)ncc(-c2ccc(OCC(C)(C)O)c(O)c2)c1-c1ccc(C#N)c(F)c1` [Example 207, (E)-3-(4-(((1-(4-(4-Cyano-3-fluorophenyl)-5-(3-hydroxy-4-(2-hydroxy-2-methylpropoxy)phenyl)-3-methylpyridin-2-yl)piperidin-4-yl)amino)methyl)phenyl)-N-hydroxyacrylamide hydrochloride], for which the IC50 on LSD1 was 6.65 nM; against pan-HDAC, 12.4 nM; on HDAC1, 2.51 nM; at HDAC8, 170 nM; in the assay with NCI-H1417 cells it was 9.5 nM; in the assay on NCI-H69 cells, 33.6 nM. This compound displayed an IC50 in the assay on NCI-H526 cells of 26.6 nM.
For `COc1ccc(-c2cnc(N3CCC(NCc4ccc(/C=C/C(=O)NO)cc4)CC3)c(C#N)c2-c2ccc(C#N)nc2)cc1O` [Example 208, (E)-3-(4-(((1-(3′,6-Dicyano-5′-(3-hydroxy-4-methoxyphenyl)-[3,4′-bipyridin]-2′-yl)piperidin-4-yl)amino)methyl)phenyl)-N-hydroxyacrylamide], the IC50 on LSD1 was 0.73 nM; at pan-HDAC, 1.13 nM; at HDAC1, 1.74 nM; on HDAC8, 17.2 nM; with NCI-H1417 cells, 2.2 nM; with NCI-H69 cells, 4.62 nM. The compound further showed an IC50 in the assay on NCI-H526 cells of 3.82 nM.
